Data published in patent US20040044013A1, “1-dimercaptoalkylquinazolin-2,4(1h,3h)-diones as matrix metalloproteinase (mmp) inhibitors” (priority 2001, published 2004).
Blank lines part the entries; values can stand above or below the compound they belong to.

Columns and labels:
Assay type in all cases: biochemical
MMP-9 = molecular target: T1, MMP-9 (Homo sapiens, UniProt P14780); test: Quantitative fluorescence assay for matrix metalloproteinases, MMP-9
T1 construct: from tissue; host or cells: human buffy coat (leukocytes)
Protocol: Preparation of the Human Collagenase MMP-9
Native MMP-9 was obtained reproducibly and with good yield and purity from human Buffy Coat. For this purpose, Buffy Coat is brought to a final concentration of 0.4% using 10% (v/v) triton X-100, shaken on ice for 30 min. and then 1 vol. double binding buffer (40 mM Tris-HCl, pH 7.5, 10 mM CaCl2, 1 M NaCl, 0.2% (v/v) triton X-100) is added and shaking on ice is continued for another 30 min.
The solution is centrifuged off at 16,000 rpm on an SS-34 rotor at 4° C. for 15 min. and filtered on glass wool. The filtrate is batched with gelatin agarose equilibrated with binding buffer and shaken on ice for 1 hour.
The charged gelatin agarose is transferred to a column and rinsed in protein-free manner using at least 10 vol. binding buffer. The bound MMP-9 is eluted with 2 gel volumes binding buffer plus 5% (v/v) DMSO.
For an exchange of buffers and simultaneous separation of minor MMP-2 contaminations the eluate can be separated on sephadex G-75 by means of gel filtration. Buffer I (20 mM Tris-HCl, pH 7.5, 5 mM CaCl2, 100 mM NaCl, 0.1% (v/v) triton X-100) is used for this purpose. […]
(§1) Quantitative Fluorescence Assay for Matrix Metalloproteinases
(§2) The fluorescent group Mca is separated from the internal quencher Dpa by enzymatic cleavage of the synthetic substrate Mca-Pro-Leu-Gly-Leu-Dpa-Ala-Arg-NH2 using the respective collagenase. This is accompanied by a great increase in fluorescence in the measuring batch, which can be quantified using a fluorimeter (λex 328 nm, λem 393 nm) and proceeds linearly within the first few minutes. […] The proteolytic residual activity of pre-incubated batches of enzyme and inhibitor is measured, the substrate and enzyme concentrations having been kept constant and the inhibitor concentration having been varied. […]
(§3) 5 min. preliminary incubation of the enzyme-inhibitor mixture at room temperature while stirring start of the reaction with 10 μl substrate dissolved in DMSO recording of the time-sensitive fluorescence increase over a period of 2 min.

MMP-2 = molecular target: T2, MMP-2 (Homo sapiens, UniProt P08253); test: Quantitative fluorescence assay for matrix metalloproteinases, MMP-2
T2 construct: endogenous in cells; host or cells: cultured human dermal fibroblasts (secreted into culture supernatant)
T2 sequence (P08253 110-660): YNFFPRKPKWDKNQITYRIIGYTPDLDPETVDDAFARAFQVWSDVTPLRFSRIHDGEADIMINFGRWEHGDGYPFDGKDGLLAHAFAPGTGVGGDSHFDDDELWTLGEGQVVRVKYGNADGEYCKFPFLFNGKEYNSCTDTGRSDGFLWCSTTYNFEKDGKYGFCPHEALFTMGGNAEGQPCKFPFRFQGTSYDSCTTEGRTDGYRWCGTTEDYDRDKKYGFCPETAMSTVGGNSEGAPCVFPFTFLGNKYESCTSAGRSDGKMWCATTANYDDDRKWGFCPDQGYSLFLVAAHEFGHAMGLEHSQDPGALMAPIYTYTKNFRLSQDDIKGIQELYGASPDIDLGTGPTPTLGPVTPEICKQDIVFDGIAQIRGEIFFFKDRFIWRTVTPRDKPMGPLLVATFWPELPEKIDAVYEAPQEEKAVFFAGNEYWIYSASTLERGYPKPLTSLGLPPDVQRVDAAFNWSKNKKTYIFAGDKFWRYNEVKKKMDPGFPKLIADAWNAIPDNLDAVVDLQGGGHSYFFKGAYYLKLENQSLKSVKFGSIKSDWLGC
Protocol: Inhibition of Matrix Metalloproteinase-2 (MMP-2)
MMP-2 (gelatinase) is supplied by cultured dermal fibroblasts to the culture medium in considerable amounts and is thus easily accessible.
For this purpose, human dermal fibroblasts are obtained according to established standard methods and cultured and the cell-free culture supernatant is treated with trypsin. Trypsin is then inactivated with a specific inhibitor (TLCK) and active MMP-2 is partially purified by affinity chromatography on gelatin sepharose and subsequent gel filtration on sepharose. MMP-2 was identified and characterized by the availability of a commercial immunoassay.
as §1
The fluorescent group Mca is separated from the internal quencher Dpa by enzymatic cleavage of the synthetic substrate Mca-Pro-Leu-Gly-Leu-Dpa-Ala-Arg-NH2 using the respective collagenase. This is accompanied by a great increase in fluorescence in the measuring batch, which can be quantified using a fluorimeter (λex 328 nm, λem 393 nm) and proceeds linearly within the first few minutes. A certain specificity of the test to matrix metalloproteinases follows from the amino acid sequence -Pro-Leu-Gly-Leu- in the substrate, on the one hand, and from the select incubation conditions, on the other hand. Matrix metalloproteinases cleave the substrate at the Gly-Leu bond. The proteolytic residual activity of pre-incubated batches of enzyme and inhibitor is measured, the substrate and enzyme concentrations having been kept constant and the inhibitor concentration having been varied. Three series of measurements using a different substrate concentration were made for each tested inhibitor.
[…] inhibitor dissolved in DMSO, or DMSO alone (non-inhibitory approach) 4 μl enzyme (MMP-2 or MMP-9 or catalytic domain of MMP-8)
as §3

[1] = molecular target: T3, catalytic domain of MMP-8 (Homo sapiens, UniProt P22894); test: Quantitative fluorescence assay for matrix metalloproteinases, MMP-8
T3 construct: instead of the whole enzyme only its enzymatically active catalytic domain was cloned into E. coli; made in house; host or cells: E. coli
From the text: Cloning and Expression of the Catalytic MMP-8 Domain
The catalytic MMP-8 domain was used as another test enzyme because it has a high degree of stability and is also available as an active enzyme and therefore needs not be activated, which is in consideration as one of the most frequent causes of error since the mercury compounds used for the activation often interfere with the test system and/or the enzyme and in this way can falsify the measuring results. The cloning strategy was directed towards the circumstance that instead of the whole enzyme only its enzymatically active catalytic domain was cloned into E. coli.
The cloning and expression of the recombinant catalytic MMP-8 domain was carried out in accordance with the information given by SCHNIERER et al. (Schnierer S., Kleine T., Gote T., Hillemann A., Knauper V., Tschesche H.: The recombinant catalytic domain of human neutrophil collagenase lacks type I collagen substrate specificity. Biochem Biophys Res Comm (1993), vol. 191, No. 2, 319-326).
as §1, §2, §3

[2] = molecular target: T4, recombinant catalytic domain of MMP-3 (Homo sapiens, UniProt P08254); test: Quantitative fluorescence assay for matrix metalloproteinases, MMP-3
T4 construct: Cloning and Expression of the Catalytic Domains of MT1-MMP and MMP-3; made in house; host or cells: Escherichia coli (inclusion bodies, renatured)
From the text: (§4) Cloning and Expression of the Catalytic Domains of MT1-MMP and MMP-3
(§5) Based on the good experience with the use of the catalytic domain of MMP-8 in the kinetic measurements, two more recombinant expressions were established analogously, i.e. that of human membrane type 1 matrix metalloproteinase (MT1-MMP; MMP-14) and that of human MMP-3 (stromelysin-1). Both enzymes are exemplary representatives of subgroups of human matrix metalloproteinases. Both proteins may be renatured stably and in catalytically active form from inclusion bodies of transformed Escherichia coli cells. As in the recombinant MMP-8 thus the subsequent activation of the enzymes is dropped, which improves the reproducibility of the kinetic measurements. The purity of the recombinant enzyme domains was at least 70%.
The cloning and expression of the catalytic domains oriented itself by the following publications: Lichte A., Kolkenbrock H., Tschesche H.: The recombinant catalytic domain of membrane-type matrix metalloproteinase-1 (MT1-MMP) induces activation of progelatinase A and progelatinase A complexed with TIMP-2. […]
as §1, §2, §3

[3] = molecular target: T5, recombinant catalytic domain of MT1-MMP (MMP-14) (Homo sapiens, UniProt P50281); test: Quantitative fluorescence assay for matrix metalloproteinases, MT1-MMP
T5 construct: Cloning and Expression of the Catalytic Domains of MT1-MMP and MMP-3; made in house; host or cells: Escherichia coli (inclusion bodies, renatured)
From the text: as §4
as §5, with “The purity of the recombinant enzyme domains was at least 70%.” left out
as §1, §2

T1 sequence (P14780 107-707 limits assumed): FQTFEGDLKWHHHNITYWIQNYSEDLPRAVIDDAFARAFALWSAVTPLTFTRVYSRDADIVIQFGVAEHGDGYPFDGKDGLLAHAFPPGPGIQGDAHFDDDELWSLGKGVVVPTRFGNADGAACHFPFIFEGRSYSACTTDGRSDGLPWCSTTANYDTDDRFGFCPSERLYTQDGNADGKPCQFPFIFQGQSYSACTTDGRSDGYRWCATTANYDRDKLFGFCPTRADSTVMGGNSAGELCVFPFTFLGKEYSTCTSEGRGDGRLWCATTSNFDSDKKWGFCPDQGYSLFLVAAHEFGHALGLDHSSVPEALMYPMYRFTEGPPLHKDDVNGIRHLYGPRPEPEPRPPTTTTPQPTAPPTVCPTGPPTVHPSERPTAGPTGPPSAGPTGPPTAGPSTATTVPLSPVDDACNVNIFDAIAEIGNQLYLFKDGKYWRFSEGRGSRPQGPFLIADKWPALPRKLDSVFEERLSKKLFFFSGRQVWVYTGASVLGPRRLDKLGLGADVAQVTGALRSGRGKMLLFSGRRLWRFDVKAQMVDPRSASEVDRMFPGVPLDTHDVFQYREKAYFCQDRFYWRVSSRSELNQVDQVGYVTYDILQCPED
T4 sequence (P08254 100-272 limits assumed): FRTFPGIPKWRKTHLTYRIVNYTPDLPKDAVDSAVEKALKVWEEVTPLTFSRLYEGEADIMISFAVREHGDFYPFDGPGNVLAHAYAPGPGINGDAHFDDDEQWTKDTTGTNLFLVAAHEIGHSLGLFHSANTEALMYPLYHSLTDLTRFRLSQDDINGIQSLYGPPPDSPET
T3 sequence (P22894 100-262 limits assumed): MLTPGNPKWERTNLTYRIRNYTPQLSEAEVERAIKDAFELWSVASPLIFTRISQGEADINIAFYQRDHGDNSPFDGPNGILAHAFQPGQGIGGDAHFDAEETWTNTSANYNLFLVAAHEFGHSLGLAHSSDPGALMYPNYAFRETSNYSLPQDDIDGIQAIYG

SMILES: O=c1[nH]c(=O)n(C(CS)CS)c2ccccc12 [Example 1, 1-(1′,3′-Dimercapto-prop-2′-yl)quinazoline-2,4(1H,3H)dione]
MMP-9 inhibition (MMP-9; with 10 μM inhibitor): 60% | MMP-2 inhibition (MMP-2; with 10 μM inhibitor): 50% | MMP-8 inhibition ([1]; with 10 μM inhibitor): 70% | MMP-3 inhibition ([2]; with 10 μM inhibitor): 50% | MT1-MMP inhibition ([3]; with 10 μM inhibitor): 30% inhi-

MMP-9 inhibition (MMP-9; with 4 μM inhibitor): 80% | MMP-2 inhibition (MMP-2; with 4 μM inhibitor): 75% | MMP-8 inhibition ([1]; with 4 μM inhibitor): 75% | MMP-3 inhibition ([2]; with 4 μM inhibitor): 75% | MT1-MMP inhibition ([3]; with 4 μM inhibitor): 60%
SMILES: O=c1[nH]c(=O)n(CC(S)CS)c2ccccc12 (racemic) [Example 2, (R,S)-1-(2′,3′-Dimercapto-prop-1′-yl)quinazoline-2,4(1H,3H)-dione]

MMP-9 inhibition (MMP-9; with 3.5 μM inhibitor): 50% | MMP-2 inhibition (MMP-2; with 5 μM inhibitor): 50% | MMP-8 inhibition ([1]; with 3.5 μM inhibitor): 50% | MMP-3 inhibition ([2]; with 9 μM inhibitor): 50%
SMILES: O=c1[nH]c(=O)n(CCC(S)CS)c2ccccc12 (racemic) [Example 3, (R,S)-1-(3′,4′-Dimercapto-but-1′-yl)quinazoline-2,4(1H,3H)dione]
